In ChEMBL document CHEMBL4251694 (ACS Med Chem Lett, 2018):
pEC50, pKd: −log10 of the molar value.

Key:
[1] = test system: Influenza A virus; assay: Antiviral activity against Influenza A virus A/WSN/33 H1N1 harboring N31S mutant infected in MDCK cells assessed as reduction in virus-induced cytopathic effect by crystal violet staining based light-microscopic analysis; format: functional, organism-based, A/WSN/1933(H1N1)
[2] = molecular target: Matrix protein 2 (Influenza A virus (A/Udorn/307/1972(H3N2)), UniProt P0DOF8, S31N); assay: Binding affinity to Influenza A virus A/Udorn/72 M2 proton channel S31N mutant by isothermal calorimetric titration; design: species or system Influenza A virus (A/udorn/1972(H3N2))
[3] = molecular target: Matrix protein 2 (Influenza A virus (A/Udorn/307/1972(H3N2)), UniProt P0DOF8, S31N); assay: Binding affinity to Influenza A virus A/Udorn/72 M2 proton channel S31N mutant expressed in Xenopus laevis oocytes at pH 5.5 by two-electrode voltage clamp assay; format: cell-based, Influenza A virus (A/udorn/1972(H3N2))

| SMILES | pEC50 [1] | pKd [2] | pKd [3] |
| --- | --- | --- | --- |
| CCC(N)(CC)C12CC3CC(CC(C3)C1)C2 | 6.00 | – | – |
| CCCC(N)(CCC)C12CC3CC(CC(C3)C1)C2 | 5.97 | < 5.00 | 2.74 |
| C[C@H](N)C12CC3CC(CC(C3)C1)C2 | 7.70 | – | – |
| CCOC(=O)C1=C[C@@H](OC(CC)CC)[C@H](NC(C)=O)[C@@H](N)C1 [OSELTAMIVIR] | 7.70 | – | – |
| NC12CC3CC(CC(C3)C1)C2 [AMANTADINE] | 6.32 | – | – |
| CC(N)C12CC3CC(CC(C3)C1)C2 (stereo unspecified) [RIMANTADINE] | 7.40 | – | – |
| CC(C)(N)C12CC3CC(CC(C3)C1)C2 | 7.52 | – | 3.35 |
| C[C@@H](N)C12CC3CC(CC(C3)C1)C2 | 7.40 | – | – |
